In PubChem BioAssay AID1259411 (Chemical Carcinogenesis Research Information System (CCRIS), 2018):
Calls of active or inactive are those of the source. How the calls were made is not given here.

Test system: rodent carcinogenicity bioassays, tumor incidence
Assay: CCRIS carcinogenicity studies
Details: Dose: 0, Dose: 0
Outline: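 NCI-built, expert-reviewed records of carcinogenicity and related test outcomes (mutagenicity, tumor promotion/inhibition) compiled from published and report sources, historical span 1985-2011, not updated.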

Measured: carcinogen call

ClCC(Br)CBr (stereo not drawn)
active: Species: MOUSE, Strain/Sex: B6C3F1/FEMALE, Route: GAVAGE, 110, 209 MG/KG, TWA, 110, 209 MG/KG, TWA, Tumor Site: Type of Lesion: STOMACH: SQUAMOUS CELL CARCINOMA active; positive | Species: MOUSE, Strain/Sex: B6C3F1/FEMALE, Route: INHALATION, 0.6, 3.0 PPM 6 HR/D, 5 D/WK FOR 76-103 WK, 0.6, 3.0 PPM 6 HR/D, 5 D/WK FOR 76-103 WK, Tumor Site: Type of Lesion: NASAL CAVITY: CARCINOMA (NOS), SQUAMOUS CELL CARCINOMA, SQUAMOUS CELL CARCINOMA OR SQUAMOUS CELL PAPILLOMA, ADENOCARCINO active; positive | Species: MOUSE, Strain/Sex: B6C3F1/MALE, Route: GAVAGE, 114, 219 MG/KG, TWA, 114, 219 MG/KG, TWA, Tumor Site: Type of Lesion: STOMACH: SQUAMOUS CELL CARCINOMA active; positive | Species: MOUSE, Strain/Sex: B6C3F1/MALE, Route: INHALATION, 0.6, 3.0 PPM 6 HR/D, 5 D/WK FOR 76 WK, 0.6, 3.0 PPM 6 HR/D, 5 D/WK FOR 76 WK, Tumor Site: Type of Lesion: NASAL CAVITY: CARCINOMA (NOS), SQUAMOUS CELL CARCINOMA, ADENOMATOUS POLYP (NOS), LUNG: ALVEOLAR/BRONCHIOLAR ADENOMA, ALV active; positive | Species: RAT, Strain/Sex: F344/FEMALE, Route: INHALATION, 0.6, 3.0 PPM 6 HR/D, 5 D/WK FOR 84-103 WK, 0.6, 3.0 PPM 6 HR/D, 5 D/WK FOR 84-103 WK, Tumor Site: Type of Lesion: NASAL CAVITY: ADENOMATOUS POLYP (NOS), ADENOMA (NOS), SQUAMOUS CELL PAPILLOMA, CARCINOMA (NOS), ADENOCARCINOMA (NOS), NA active; positive | Species: RAT, Strain/Sex: F344/MALE, Route: INHALATION, 0.6, 3.0 PPM 6 HR/D, 5 D/WK FOR 84-103 WK, 0.6, 3.0 PPM 6 HR/D, 5 D/WK FOR 84-103 WK, Tumor Site: Type of Lesion: NASAL CAVITY: ADENOMATOUS POLYP (NOS), ADENOMA (NOS), SQUAMOUS CELL PAPILLOMA, SQUAMOUS CELL CARCINOMA, CARCINOMA (NOS) active; positive | Species: RAT, Strain/Sex: OSBORNE-MENDEL/FEMALE, Route: GAVAGE, 15, 29 MG/KG, TWA, 15, 29 MG/KG, TWA, Tumor Site: Type of Lesion: STOMACH: SQUAMOUS CELL CARCINOMA, SQUAMOUS CELL PAPILLOMA, MAMMARY GLAND: ADENOCARCINOMA active; positive | Species: RAT, Strain/Sex: OSBORNE-MENDEL/MALE, Route: GAVAGE, 15, 29 MG/KG, TWA, 15, 29 MG/KG, TWA, Tumor Site: Type of Lesion: STOMACH: SQUAMOUS CELL CARCINOMA, MULTIPLE SITES: HEMANGIOSARCOMA OR HEMANGIOMA active; positive
